Structures can show the parent of a compound that is named as a salt.
Target: HCV NS5b RNA dependent RNA polymerase (Hepatitis C virus genotype 1a, UniProt P27958)
Assay: Inhibition of HCV NS5b RNA dependent RNA polymerase activity (incorporation of 3H labeled GTP, scintillation proximity)
Format: biochemical
Settings: HCV NS5b polymerase assay; read-out: concentration for 50% inhibition (inhibitory activity, Table 2)
Description: Compounds of the present invention are evaluated for inhibition of HCV NS5b RNA dependent RNA polymerase activity in assays comprised of a suitable buffer (e.g. 20 mM Tris-HCl pH 7.6), primed or unprimed RNA templates, GTP, ATP, CTP, and UTP, MnCl2 or MgCl2, and reducing agent such as 10 mM dithiothreitol or 2-mercaptoethanol. The assay buffer may contain salts such as ammonium acetate, KCl, or NaCl, and nonionic or zwitterionic detergents such as Tween or CHAPS. The incorporation of nucleotides into the complementary RNA strand may be monitored by the incorporation of radiolabeled NTP (e.g. ^3H labeled GTP). Suitable RNA templates for de novo initiation in the presence of 20-50 μM GTP or ATP are the homopolymers poly rC and poly rU, respectively. Heteropolymer RNA templates with 1-3 cytidine (C) bases or 1-3 uridine (U) bases at the 3′ terminus of the template may also be used for de novo initiation. Primed RNA templates such as poly rC primed with oligo rG or oligo dG, and poly rA primed with oligo rU may also be used to detect polymerase activity. The primers may be any length greater than 10 bases. A biotin residue may be added to the 5′ end of the template or the 5′ end of the primer to capture the template and the newly synthesized, complementary strand on avidin coated spheres. One embodiment of this technology consists of a mixture of NS5b polymerase, a poly rC RNA template primed with 5′ biotinylated oligo rG, 20 mM Tris HCl pH 7.6, 100 mM ammonium acetate, 10 mM dithiothreitol, 2 mM CHAPS, 1 mM MgCl2, and 150-200 nM ^3H labeled GTP. Test compounds (inhibitors) may be incorporated in the reaction mixture with up to 10% DMSO. The reaction is run for various times (1-180 minutes) at 22-37° C., and stopped by the addition of 10-140 mM EDTA. Scintillation Proximity Assay avidin-coated beads (Amersham Pharmacia Biotech) are added to capture the ds RNA product; or the reaction mixtures may be transferred to avidin coated Flash Plates (Perkin Elmer Life Sciences). The incorporation of radiolabeled GTP into the complementary strand is measured in 96, 384, or 1536 well plates in scintillation counters such as the Wallac Microbeta and Packard TopCount.

HCV NS5b RNA dependent RNA polymerase, sequence (P27958 2421-3011): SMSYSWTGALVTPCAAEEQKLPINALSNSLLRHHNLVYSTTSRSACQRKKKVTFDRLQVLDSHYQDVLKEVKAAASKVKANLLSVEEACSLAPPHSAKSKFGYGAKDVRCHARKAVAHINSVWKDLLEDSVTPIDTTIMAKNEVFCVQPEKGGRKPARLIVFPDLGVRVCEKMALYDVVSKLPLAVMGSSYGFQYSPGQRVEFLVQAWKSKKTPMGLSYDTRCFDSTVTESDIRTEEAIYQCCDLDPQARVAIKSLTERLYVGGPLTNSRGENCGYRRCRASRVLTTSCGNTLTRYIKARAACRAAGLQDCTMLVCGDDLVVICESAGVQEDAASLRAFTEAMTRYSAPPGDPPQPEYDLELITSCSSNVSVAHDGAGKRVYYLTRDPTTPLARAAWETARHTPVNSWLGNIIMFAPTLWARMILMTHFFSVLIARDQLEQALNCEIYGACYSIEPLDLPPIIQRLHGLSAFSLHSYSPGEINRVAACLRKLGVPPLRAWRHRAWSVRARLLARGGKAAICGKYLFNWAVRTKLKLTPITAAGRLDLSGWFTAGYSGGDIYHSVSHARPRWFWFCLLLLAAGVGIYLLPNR

Which IC50 does the source give for `Cc1ccc(Nc2ccccc2C(=O)O)c(Nc2ccccc2C(=O)O)c1` [xl, 2-({2-[(2-carboxyphenyl)amino]-4-methylphenyl}amino)benzoic acid] here?
The IC50 was 1 to 20 µM.

`O=C(O)c1ccccc1Nc1ccc(C(F)(F)F)cc1Nc1ccc(CN2CCCC2)cc1C(=O)O` [xxx, 2-{[2-[(2-carboxyphenyl)amino]-5-(trifluoromethyl)phenyl]amino}-5-(pyrrolidin-1-ylmethyl)benzoic acid] was tested. Which IC50 did it give?
The IC50 was 1 to 20 µM.

Which IC50 does the source give for `N[C@@H](Cc1ccccc1)C(=O)NCc1ccc(Nc2cc(C(F)(F)F)ccc2Nc2ccccc2C(=O)O)c(C(=O)O)c1` [xviii, N-(3-carboxy-4-{[2-[(2-carboxyphenyl)amino]-5-(trifluoromethyl)phenyl]amino}benzyl)-L-phenylalaninamide chloride] here?
The IC50 was over 20 µM.

For `NCCc1ccc(Nc2ccc(C(F)(F)F)cc2Nc2ccccc2C(=O)O)c(C(=O)O)c1` [xxvii, 5-(2-aminoethyl)-2-{[2-[(2-carboxyphenyl)amino]-4-(trifluoromethyl)phenyl]amino}benzoic acid hydrochloride], which IC50 is on record?
Its IC50 is under 1 µM.

With `O=C(O)c1ccccc1Nc1ccc(C(F)(F)F)cc1Nc1ccccc1C(=O)O` [xxxi, 2-{[2-[(2-carboxyphenyl)amino]-4-(trifluoromethyl)phenyl]amino}benzoic acid] as the compound, how does the IC50 read?
Its IC50 is under 1 µM.

How did the IC50 turn out when “5-(aminomethyl)-2-{[2-[(2-carboxyphenyl)thio]-5-(trifluoromethyl)phenyl]amino}benzoic acid [xii]” was run?
Its IC50 is 1 to 20 µM.

Which IC50 does the source give for `O=C(O)c1ccccc1Nc1ccccc1Nc1ccccc1C(=O)O` [lviii] here?
Its IC50 is over 20 µM.

With `O=C(O)c1ccccc1Nc1ccccc1Nc1cc(F)c(F)cc1C(=O)O` [lvii, 2-({2-[(2-carboxyphenyl)amino]phenyl}amino)-4,5-difluorobenzoic acid] as the compound, how does the IC50 read?
The IC50 was 1 to 20 µM.

For `O=C(O)c1ccccc1Nc1ccc(F)cc1Nc1ccccc1C(=O)O` [lii, 2-({2-[(2-carboxyphenyl)amino]-4-fluorophenyl}amino)benzoic acid], which IC50 is on record?
The IC50 was 1 to 20 µM.

With `c1ccc(Nc2ccccc2-c2nnn[nH]2)c(Nc2ccccc2-c2nnn[nH]2)c1` [lv, N,N′-bis[2-(1H-tetrazol-5-yl)phenyl]benzene-1,2-diamine, disodium salt] as the compound, how does the IC50 read?
The IC50 was 1 to 20 µM.

For `O=C(O)c1ccccc1Nc1cc(C(F)(F)F)ccc1Oc1ccccc1C(=O)O` [lxv, 2-{[2-(2-carboxyphenoxy)-5-(trifluoromethyl)phenyl]amino}benzoic acid], which IC50 is on record?
Its IC50 is 1 to 20 µM.

Which IC50 does the source give for `N#Cc1ccc(Nc2ccccc2Nc2ccccc2C(=O)O)c(C(=O)O)c1` [li, 2-({2-[(2-carboxyphenyl)amino]phenyl}amino)-5-cyanobenzoic acid] here?
Its IC50 is 1 to 20 µM.

Which IC50 does the source give for `NCc1ccc(Nc2cc(C(F)(F)F)ccc2Oc2ccccc2C(=O)O)c(C(=O)O)c1` [xxv, 5-(aminomethyl)-2-{[2-(2-carboxyphenoxy)-5-(trifluoromethyl)phenyl]amino}benzoic acid hydrochloride] here?
Its IC50 is over 20 µM.

Which IC50 does the source give for `NCCc1ccc(Nc2cc(C(F)(F)F)ccc2Nc2ccccc2C(=O)O)c(C(=O)O)c1` [xxxviii, 5-(2-aminoethyl)-2-{[2-[(2-carboxyphenyl)amino]-5-(trifluoromethyl)phenyl]amino}benzoic acid hydrochloride] here?
The IC50 was under 1 µM.

`NCc1ccc(Nc2ccc(C(F)(F)F)cc2Nc2ccccc2C(=O)O)c(C(=O)O)c1` [xxiv, 5-(aminomethyl)-2-{[2-[(2-carboxyphenyl)amino]-4-(trifluoromethyl)phenyl]amino}benzoic acid hydrochloride] was tested. Which IC50 did it give?
The IC50 was under 1 µM.

For `O=C(O)c1ccccc1Nc1ccccc1Nc1cc(F)ccc1C(=O)O` [lix, 2-({2-[(2-carboxyphenyl)amino]phenyl}amino)-4-fluorobenzoic acid], which IC50 is on record?
Its IC50 is over 20 µM.

For `N#Cc1ccc(Nc2ccc(C(F)(F)F)cc2Nc2ccccc2C(=O)O)c(C(=O)O)c1` [xvi, 2-{[2-[(2-carboxyphenyl)amino]-4-(trifluoromethyl)phenyl]amino}-5-cyanobenzoic acid], which IC50 is on record?
The IC50 was 1 to 20 µM.

How did the IC50 turn out when `COc1ccc(Nc2ccccc2Nc2ccccc2C(=O)O)c(C(=O)O)c1` [lx, 2-({2-[(2-carboxyphenyl)amino]phenyl}amino)-5-methoxybenzoic acid] was run?
The IC50 was over 20 µM.

— patent publication US20040142993A1, “Inhibitors of HCV NS5B polymerase” (priority 2002, published 2004)
